The target of one assay is ERK2 (Homo sapiens (Human), UniProt P28482). In words: Active ERK1 and ERK2 Kinase Assay (Mobility Shift Assay). The format is biochemical. The note with it: activated ERK2, Mobility Shift Assay. Here is the method: Activated ERK1 and ERK2 activity was determined in a Mobility Shift Assay (MSA) format as follows: Compound and kinase solution were prepared with assay buffer (20 mM HEPES, 0.01% Triton X-100, 2 mM DTT, pH7.5) and mixed and incubated in for 30 mins at rt. ERK1 & ERK2 were then activated by the addition of F1-Substrate, ATP and metal solution and incubated for 1 h at rt. After 1 h, the reaction was terminated by the addition of […] of Termination Buffer (QuickScout Screening Assist MSA; Carna Biosciences) to the well. The reaction mixture was applied to LabChip™ system (PerkinElmer), and the product and substrate peptide peaks were separated, analyzed and quantitated. The kinase reaction is evaluated by the product ratio calculated from peak heights of product (P) and substrate(S) peptides (P/(P+S)).
Sequence of ERK2 (P28482 whole entry): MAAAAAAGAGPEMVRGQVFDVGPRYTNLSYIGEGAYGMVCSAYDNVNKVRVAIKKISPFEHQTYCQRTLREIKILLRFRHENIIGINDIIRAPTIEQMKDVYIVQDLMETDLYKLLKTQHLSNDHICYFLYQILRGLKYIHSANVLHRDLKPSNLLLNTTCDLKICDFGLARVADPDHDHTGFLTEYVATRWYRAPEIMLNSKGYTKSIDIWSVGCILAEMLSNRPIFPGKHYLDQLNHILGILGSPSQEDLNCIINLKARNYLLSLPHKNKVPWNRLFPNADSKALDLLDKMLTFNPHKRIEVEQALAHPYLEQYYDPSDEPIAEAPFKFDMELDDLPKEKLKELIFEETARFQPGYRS

Another assay relates to A375 (melanoma) cells. In words: Proliferation Assay (CellTiter-Glo). The assay is classed as cell-based. The note with it: 3 days incubation, CellTiter-Glo luminescence. As for the experimental part:
A375 (melanoma), Colo-205 (colon cancer), Miapaca (pancreatic), HPAFII (pancreatic), sNF02.0 (neurofibromatosis type 1), sNF96.2 (neurofibromatosis type 1) and 8505 (Thyroid) cells were grown and maintained in RPMI-1640 medium containing 100 U/mL penicillin-streptomycin and 10% fetal bovine serum. Cells were in growth medium in 96-well opaque-walled clear bottom plates and incubated in the CO2 incubator overnight before treatment. Cells were treated with compounds diluted in DMSO and a 10 point 3-fold serial dilutions were done. Plates were placed in 37° C., 5% CO2 to incubate for 3 days. Before they were developed by adding 100 μL of CellTiter-Glo reagent (Promega) to the assay plate, plates were shaken briefly for 2 mins and allowed to incubate at room temperature for 10 mins. The bottom of the plates was pasted with white back seal and luminescence was recorded with Flexstation3 with setting of luminescence, integration time 500 ms.
Compounds of Formula (I), (II) and (III) are active in this assay as noted in Table 2.

The structures appear in SMILES notation. pIC50: −log10 of the molar value. A value given as a limit tells only on which side of the number the result lay.

In the case of `CN1CCC(c2n[nH]c3ccc(N4CC[C@]5(CCN(CC(=O)N6CC=C(c7ccc(-c8ncn(C)n8)cc7)CC6)C5)C4=O)cc23)CC1` [Example 4, (S)-7-(2-(4-(4-(1-methyl-1H-1,2,4-triazol-3-yl)phenyl)-3,6-dihydropyridin-1(2H)-yl)-2-oxoethyl)-2-(3-(1-methylpiperidin-4-yl)-1H-indazol-5-yl)-2,7-diazaspiro[4.4]nonan-1-one], the pIC50 on ERK2 is at most 6.60; with A375 (melanoma) cells (Homo sapiens, A-375, 72 h), at most 6.00.
For `CNC(=O)c1cc(-c2n[nH]c3ccc(N4CC[C@]5(CCN(CC(=O)N6CC=C(c7ccc(-c8ncn(C)n8)cc7)CC6)C5)C4=O)cc23)ccn1` [Example 5] the same measures were at least 7.30 and at least 6.30.
For the molecule `CNC(=O)c1ccc(-c2n[nH]c3ccc(N4CC[C@]5(CCN(CC(=O)N6CC=C(c7ccc(-c8ncn(C)n8)cc7)CC6)C5)C4=O)cc23)cn1` [Example 6], the pIC50 on ERK2 was at least 7.30; in the assay on A375 (melanoma) cells (Homo sapiens, A-375, 72 h) it was at least 6.30.
For `Cn1cnc(-c2ccc(C3=CCN(C(=O)CN4CC[C@]5(CCN(c6ccc7[nH]nc(C8CCS(=O)(=O)CC8)c7c6)C5=O)C4)CC3)cc2)n1` [Example 7, (S)-7-(2-(4-(4-(1-Methyl-1H-1,2,4-triazol-3-yl)phenyl)-5,6-dihydropyridin-1(2H)-yl)-2-oxoethyl)-2-(3-(tetrahydro-2H-thiopyran 1,1-dioxide-4-yl)-1H-indazol-5-yl)-2,7-diazaspiro[4.4]nonan-1-one], in that order: at least 7.30 and at most 6.00.
With `COc1ncc(-c2n[nH]c3ccc(N4CC[C@]5(CCN(CC(=O)N6CC=C(c7ccc(-c8ncn(C)n8)cc7)CC6)C5)C4=O)cc23)cc1C(F)(F)F` [Example 8], the pIC50 on ERK2 was at least 7.30; in the assay with A375 (melanoma) cells (Homo sapiens, A-375, 72 h), at most 6.00.
Turning to `Cn1cnc(-c2ccc(C3=CCN(C(=O)CN4CC[C@]5(CCN(c6ccc7[nH]nc(-c8cnc(C#N)c(Cl)c8)c7c6)C5=O)C4)CC3)cc2)n1` [Example 9], the pIC50 at ERK2 is at least 7.30; in the assay with A375 (melanoma) cells (Homo sapiens, A-375, 72 h) it was at least 6.30.
`Cn1cnc(-c2ccc(C3=CCN(C(=O)CN4CC[C@]5(CCN(c6ccc7[nH]nc(-c8cnc(C#N)c(C(F)(F)F)c8)c7c6)C5=O)C4)CC3)cc2)n1` [Example 10]: the pIC50 is at least 7.30 at ERK2 and 6.00 to 6.30 in the assay on A375 (melanoma) cells (Homo sapiens, A-375, 72 h).
Turning to `Cn1cnc(-c2ccc(C3=CCN(C(=O)CN4CC[C@]5(CCN(c6ccc7[nH]nc(N8CCCC8)c7c6)C5=O)C4)CC3)cc2)n1` [Example 11, (S)-7-(2-(4-(4-(1-Methyl-1H-1,2,4-triazol-3-yl)phenyl)-5,6-dihydropyridin-1(2H)-yl)-2-oxoethyl)-2-(3-(pyrrolidin-1-yl)-1H-indazol-5-yl)-2,7-diazaspiro[4.4]nonan-1-one], the pIC50 is at least 7.30 at ERK2 and at most 6.00 in the assay with A375 (melanoma) cells (Homo sapiens, A-375, 72 h).
In the case of `Cn1cnc(-c2ccc(C3=CCN(C(=O)CN4CC[C@]5(CCN(c6ccc7[nH]nc(C8CCN(CC(F)(F)F)CC8)c7c6)C5=O)C4)CC3)cc2)n1` [Example 12, (S)-7-(2-(4-(4-(1-Methyl-1H-1,2,4-triazol-3-yl)phenyl)-5,6-dihydropyridin-1(2H)-yl)-2-oxoethyl)-2-(3-(1-(2,2,2-trifluoroethyl)piperidin-4-yl)-1H-indazol-5-yl)-2,7-diazaspiro[4.4]nonan-1-one], the pIC50 at ERK2 is at least 7.30; in the assay with A375 (melanoma) cells (Homo sapiens, A-375, 72 h), 6.00 to 6.30.
Regarding `Cn1cnc(-c2ccc(C3=CCN(C(=O)CN4CC[C@]5(CCN(c6ccc7[nH]nc(C8CCOC8)c7c6)C5=O)C4)CC3)cc2)n1` (stereo partly drawn) [Example 13, (5S)-7-(2-(4-(4-(1-Methyl-1H-1,2,4-triazol-3-yl)phenyl)-5,6-dihydropyridin-1(2H)-yl)-2-oxoethyl)-2-(3-(tetrahydrofuran-3-yl)-1H-indazol-5-yl)-2,7-diazaspiro[4.4]nonan-1-one], the pIC50 was at least 7.30 at ERK2 and at least 6.30 in the assay on A375 (melanoma) cells (Homo sapiens, A-375, 72 h).
`Cn1nc(-c2ccc(C3=CCN(C(=O)CN4CC[C@]5(CCN(c6ccc7[nH]nc(-c8ccc(C#N)c(Cl)c8)c7c6)C5=O)C4)CC3)cc2)oc1=O` [Example 14]: the values for the pIC50 at ERK2 and with A375 (melanoma) cells were at least 7.30 and at least 6.30, respectively.

For the origin of these results see patent publication US10934304B2, “Spirocyclic compounds” (Recurium IP Holdings, LLC, priority 2016, dated 2021).
